Reference: US5543396A, “Proline phosphonate derivatives” (priority 1994, dated 1996)

Tests used:
[1] = target: T1, Human Placenta DPP-IV (Homo sapiens, UniProt P27487); assay: Inhibition of DPP-IV by peptidyl phosphonates, incubation method; assay type: biochemical; settings: for % Inhibition 2 min / % Inhibition 30 min: [I] 0.12 mM, 0.05 M Tris pH 7.8, 5% Me2SO, substrate TFA.Ala-Pro-AFC 0.190 mM; for % Inhibition 2 min / % Inhibition 30 min / kobs /[I] for DPP-IV: 23° C.; for kobs /[I] for DPP-IV: 0.05 M Tris pH 7.8, 8% Me2SO, substrate TFA.Ala-Pro-AFC 0.2 mM; for inhibition of DPP-IV, in words: inhibitor 0.12 mM
T1 construct: from tissue; host or cells: human placenta
Method: Standard Assay of DPP-IV. DPP-IV was assayed in 450 μL of 50 mM Tris, pH 7.8, 0.2 mM Ala-Pro-AFC (freshly diluted from a 20 mM stock in DMF), and 5 μL of enzyme solution at 30° C. or in 2 mL of buffer, 0.2 mM Ala-Pro-AFC (diluted from 8 mM stock in Me2 SO) at 23° C. Fluorescence was measured at 400 nm excitation and 505 nm emission. One unit of DPP-IV is defined as the amount of enzyme that will hydrolyze 1.0 μmole of Ala-Pro-AFC per min at 25° C. and pH 7.8.
Enzyme Irreversible Inactivation--Incubation Method. An aliquot of inhibitor (25 or 50 μL) in Me2 SO was added to 0.28-0.55 mL of a buffered enzyme solution (0.83 munits for DPP-IV; 2.1 units for acetylcholinesterase; 0.07-4.5 μM for other enzymes) to initiate the inactivation reaction. Aliquots (20-250 μL) were withdrawn at various intervals and the residual enzymatic activity was measured at 23° C. as described below. The buffers were: 0.05M Tris, pH 7.8 for DPP-IV; 0.1M Hepes, 0.01M CaCl2, pH 7.5 for bovine trypsin; 0.1M Hepes, 0.5M NaCl, pH 7.5 for bovine chymotrypsin, PPE, and HLE; 0.1M phosphate, pH 7.5 for acetylcholinesterase; 50 mM Tris-HCl, 2 mM EDTA, 5 mM cysteine, (freshly prepared) pH 7.5 buffer for papain and 100 mM KH2 PO4, 1.33 mM EDTA, 2.7 mM cysteine (freshly prepared), pH 6.0 buffer for cathepsin B. […] The inhibitor concentrations are shown in the appropriate table. Stock solutions of substrates were prepared in Me2 SO and stored at -20° C. DPP-IV was assayed with TFA.Ala-Pro-AFC. Papain and cathepsin B were assayed with Bz-Arg-AMC and Z-Arg-Arg-AMC, respectively. The release of AMC were followed fluorometrically (excitation at 380 nm and emmision at 460 nm for AMC). Acetylcholinesterase was assayed with acetylthiocholine iodide in the presence of DTNB at 412 nm. Trypsin was assayed with Z-Phe-Gly-Arg-.rho.NA.HCl (0.09 mM), chymotrypsin was assayed with Suc-Phe-Thr-Phe-.rho.NA (0.48 mM), PPE and HLE were assayed with Suc-Ala-Ala-Ala-.rho.NA (0.44 mM) and MeO-Suc-Ala-Ala-Pro-Val-.rho.NA (0.24 mM), respectively. Peptide .rho.-nitroanilide hydrolysis was measured at 410 nm (ε410 =8,800 M ^1 cm^-1). Pseudo first-order inactivation rate constants (kobs) were obtained from plots of In vt /vo vs time, and the correlation coefficients were greater than 0.98.

[2] = Half-lives for spontaneous hydrolysis of inhibitors in buffer; assay type: physicochemical; settings: 0.05 M Tris, pH 7.8 buffer, 8% Me2SO, 23° C.
Source text: Determination of Half-Lives for Spontaneous Hydrolysis of Inhibitors in Buffer. […] The spontaneous hydrolysis was monitored by following the increase in absorbance at 270 nm for phosphonates with phenoxy groups, at 280 nm for compounds with 4-.chlorophenoxy groups or at 277 nm for the 4-fluorophenoxy derivative. Half-lives were obtained from first-order plots of ln (Af -At) vs time, where At is the absorbance of the mixture at time t, and Af is the final absorbance of phosphonate monophenyl ester and phenol (or corresponding compounds). This was obtained from the absorbance of the solution which had remained constant for a few hours. All the plots gave correlation coefficients of 0.95 or greater.

[3] = target: Chymotrypsin (Bos taurus, UniProt P00766); assay: Inhibition of chymotrypsin, incubation method; assay type: biochemical, bovine; settings: for kobs /[I] Chymotrypsin: [I] 0.42 mM, 0.1 M Hepes, 0.5 M NaCl, pH 7.5, 8-9% Me2SO, 23° C., Suc-Phe-Thr-Phe-pNA 0.48 mM
Method: Inactivation rates of serine proteases by aryl diesters of peptidyl derivatives of α-aminoalkylphosphonates were measured by the incubation method. An aliquot of inhibitor (25 or 50 μl) in Me2 SO was added to a buffered enzyme solution (0.01-2.3 μM) to initiate the inactivation. Aliquots (50 μl) were withdrawn at various intervals and the residual enzymatic activity was measured. Me2 SO concentration in the reaction mixture was 8-12% (v/v). A 0.1M HEPES, 0.01M CaCl2, pH 7.5 buffer was utilized for trypsin and trypsin-like enzymes. A 0.1M HEPES, 0.5M NaCl, pH 7.5, was utilized for the other serine proteases. Peptide thioesters or peptide nitroanilides with the appropriate sequences were used as substrates for various serine proteases. All peptide thioesters hydrolysis rates were measured with the assay mixture containing 4,4'-dithiodipyridine (ε324 =19800M^-1 cm^-1). Peptide 4-nitroanilide hydrolysis was measured at 410 nm (ε410 =8800 M ^-1 cm^-1). First order inactivation rate constants (kobs) were obtained from plots of ln vt /vo vs time, and the correlation coefficients were greater then 0.98.
Enzyme Irreversible Inactivation--Incubation Method. An aliquot of inhibitor (25 or 50 μL) in Me2 SO was added to 0.28-0.55 mL of a buffered enzyme solution (0.83 munits for DPP-IV; 2.1 units for acetylcholinesterase; 0.07-4.5 μM for other enzymes) to initiate the inactivation reaction. Aliquots (20-250 μL) were withdrawn at various intervals and the residual enzymatic activity was measured at 23° C. as described below. The buffers were: 0.05M Tris, pH 7.8 for DPP-IV; 0.1M Hepes, 0.01M CaCl2, pH 7.5 for bovine trypsin; 0.1M Hepes, 0.5M NaCl, pH 7.5 for bovine chymotrypsin, PPE, and HLE; 0.1M phosphate, pH 7.5 for acetylcholinesterase; 50 mM Tris-HCl, 2 mM EDTA, 5 mM cysteine, (freshly prepared) pH 7.5 buffer for papain and 100 mM KH2 PO4, 1.33 mM EDTA, 2.7 mM cysteine (freshly prepared), pH 6.0 buffer for cathepsin B. The Me2 SO concentration in the reaction mixtures was 8-9% (v/v). The inhibitor concentrations are shown in the appropriate table. Stock solutions of substrates were prepared in Me2 SO and stored at -20° C. DPP-IV was assayed with TFA.Ala-Pro-AFC. Papain and cathepsin B were assayed with Bz-Arg-AMC and Z-Arg-Arg-AMC, respectively. The release of AMC were followed fluorometrically (excitation at 380 nm and emmision at 460 nm for AMC). Acetylcholinesterase was assayed with acetylthiocholine iodide in the presence of DTNB at 412 nm. Trypsin was assayed with Z-Phe-Gly-Arg-.rho.NA.HCl (0.09 mM), chymotrypsin was assayed with Suc-Phe-Thr-Phe-.rho.NA (0.48 mM), PPE and HLE were assayed with Suc-Ala-Ala-Ala-.rho.NA (0.44 mM) and MeO-Suc-Ala-Ala-Pro-Val-.rho.NA (0.24 mM), respectively. Peptide .rho.-nitroanilide hydrolysis was measured at 410 nm (ε410 =8,800 M ^1 cm^-1). […]

[4] = target: DPP-IV (Homo sapiens, UniProt P27487); assay: Stability of inhibited DPP-IV; settings: for recovery of enzyme activity of inhibited DPP-IV: after 24 h, excess inhibitor removed by centrifugation; for DPP-IV enzyme activity found after incubation with inhibitor: inhibitor 0.042-0.42 mM, pH 7.8 buffer, incubation for 1 h
Method: Excess inhibitors in the inhibited enzyme solution were removed by centrifugation of the diluted enzyme solution twice using Amicon microconcentrators.
Stability of Inhibited DPP-IV. […] Excess inhibitors was removed from diluted solutions of inactivated enzyme by centrifugation three times at 0° C. for 1 h each in Amicon Centricon-10 microconcentrators following addition of buffer. The enzyme activity of solution was assayed at various intervals as described above.

[5] = Hydrolysis in human plasma; assay type: in vitro ADME
Source text: Furthermore, they show excellent stability in human plasma. For example Suc-Val-Pro-Phe^P (OPh)2 has a hydrolysis half-time in human plasma of about 20 hrs. […] Thus they can be used under a variety of conditions. Phosphonates have the additional advantage of being very stable in plasma and will have a high effectiveness in […] vivo due to their long lifetimes.

T1 sequence (P27487 whole entry): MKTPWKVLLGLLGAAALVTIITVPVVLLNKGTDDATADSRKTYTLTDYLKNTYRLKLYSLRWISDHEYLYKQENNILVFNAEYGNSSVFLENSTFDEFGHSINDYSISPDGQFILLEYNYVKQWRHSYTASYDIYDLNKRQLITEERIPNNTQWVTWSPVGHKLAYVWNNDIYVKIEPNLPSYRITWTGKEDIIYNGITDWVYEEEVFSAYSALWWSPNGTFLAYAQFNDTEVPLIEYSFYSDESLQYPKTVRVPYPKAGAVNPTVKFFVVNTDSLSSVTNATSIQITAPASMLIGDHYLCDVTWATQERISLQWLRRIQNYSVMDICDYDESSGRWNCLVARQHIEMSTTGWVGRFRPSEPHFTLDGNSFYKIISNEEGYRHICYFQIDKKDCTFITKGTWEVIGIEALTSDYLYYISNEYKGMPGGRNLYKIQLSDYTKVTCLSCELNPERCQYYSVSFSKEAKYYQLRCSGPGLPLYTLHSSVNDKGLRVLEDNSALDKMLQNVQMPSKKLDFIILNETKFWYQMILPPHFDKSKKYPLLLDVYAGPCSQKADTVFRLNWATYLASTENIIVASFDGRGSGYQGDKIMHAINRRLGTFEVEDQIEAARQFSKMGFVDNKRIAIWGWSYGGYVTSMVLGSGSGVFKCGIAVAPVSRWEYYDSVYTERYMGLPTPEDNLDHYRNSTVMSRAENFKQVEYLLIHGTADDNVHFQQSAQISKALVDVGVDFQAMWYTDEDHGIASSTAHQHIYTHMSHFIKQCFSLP
Sequence of DPP-IV (P27487 whole entry): as above

| Molecule | % Inhibition 2 min ([1]; 2 min incubation) | % Inhibition 30 min ([1]; 30 min incubation) | kobs /[I] for DPP-IV ([1]; [I] 0.42 mM) | inhibition of DPP-IV, in words ([1]; 30 min incubation) | t1/2, half-life for hydrolysis [2] | inhibition of chymotrypsin, in words [3] | kobs /[I] Chymotrypsin [3] | recovery of enzyme activity of inhibited DPP-IV [4] | inhibition of DPP-IV, in words ([1]; 2 min incubation) | DPP-IV enzyme activity found after incubation with inhibitor [4] | kobs /[I] for DPP-IV ([1]; [I] 0.042 mM) | hydrolysis half-time in human plasma [5] |
| --- | --- | --- | --- | --- | --- | --- | --- | --- | --- | --- | --- | --- |
| C[C@H](N)C(=O)N1CCCC1P(=O)(Oc1ccc(Cl)cc1)Oc1ccc(Cl)cc1.Cl (some centres unmarked) [Compound 12, Di(4-chlorophenyl) Alanylpyrrolidine-2-phosphonate Hydrochloride] | 0% | 100% | 28 M⁻¹ s⁻¹ | showed some inhibitory potency | 5.3 h | very slowly | 26 M⁻¹ s⁻¹ | did not regain enzyme activity |  |  |  |  |
| Cl.Cl.NCCCC[C@H](N)C(=O)N1CCCCC1P(=O)(Oc1ccccc1)Oc1ccccc1 (some centres unmarked) [Compound 11, Diphenyl Lysylpiperidine-2-phosphonate Dihydrochloride] | 35% | 88% | 4.2 M⁻¹ s⁻¹ | showed some inhibitory potency | > 48 h |  |  |  | effectively inhibited |  |  |  |
| Br.N[C@@H](Cc1ccccc1)C(=O)N1CCCC1P(=O)(Oc1ccccc1)Oc1ccccc1 (some centres unmarked) [Compound 9, Diphenyl Phenylalanylpyrrolidine-2-phosphonate Hydrobromide] | 0% | 0% |  | did not show any inhibition |  |  |  |  |  |  |  |  |
| CC(=O)O.C[C@H](N)C(=O)N1CCCCC1P(=O)(Oc1ccccc1)Oc1ccccc1 (some centres unmarked) [Compound 7, Diphenyl Alanylpiperidine-2-phosphonate Acetate] | 0% | 100% | 12.6 M⁻¹ s⁻¹ | showed some inhibitory potency | > 72 h |  |  | did not regain enzyme activity |  | no enzyme activity |  |  |
| Br.Br.NCCCC[C@H](N)C(=O)N1CCCC1P(=O)(Oc1ccccc1)Oc1ccccc1 (some centres unmarked) [Compound 10, Diphenyl Lysylpyrrolidine-2-phosphonate Dihydrobromide] | 0% | 0% | 1.7 M⁻¹ s⁻¹ | did not show any inhibition | 52 h |  |  |  |  |  |  |  |
| CC(=O)O.C[C@H](N)C(=O)N1CCCCC1P(=O)(O)Oc1ccccc1 (some centres unmarked) [Compound 8, Monophenyl Alanylpiperidine-2-phosphonate Acetate] | 0% | 0% |  | did not show any inhibition |  |  |  |  |  |  |  |  |
| C[C@H](N)C(=O)N1CCCCC1P(=O)(Oc1ccc(Cl)cc1)Oc1ccc(Cl)cc1.Cl (some centres unmarked) [Compound 13, Di(4-chlorophenyl) Alanylpiperidine-2-phosphonate Hydrochloride] | 88% | 100% |  | showed some inhibitory potency | 67 h | very slowly | 18 M⁻¹ s⁻¹ | did not regain enzyme activity | effectively inhibited | no enzyme activity | 156 M⁻¹ s⁻¹ |  |
| Suc-Val-Pro-Phe^P (OPh)2 |  |  |  |  |  |  |  |  |  |  |  | about 20 hrs |
| C[C@H](N)C(=O)N1CCCC1P(=O)(Oc1ccccc1)Oc1ccccc1.Cl (some centres unmarked) [Compound 6, Diphenyl Alanylpyrrolidine-2-phosphonate Hydrochloride] | 0% | 33% | 1.2 M⁻¹ s⁻¹ | showed some inhibitory potency | 23.1 h |  |  | did not regain enzyme activity |  | 30% |  |  |
| C[C@H](N)C(=O)N1CCCCC1P(=O)(Oc1ccc(F)cc1)Oc1ccc(F)cc1.Cl (some centres unmarked) [Compound 14, Di(4-fluorophenyl) Alanyl-piperidine-2-phosphonate Hydrochloride] |  |  | 12 M⁻¹ s⁻¹ |  | > 68 h |  |  |  |  | no enzyme activity |  |  |
